# Laboratory results taken from ChEMBL document CHEMBL5370621, “Design, Synthesis, and Biological Evaluation of Novel Thioureidobenzamide (TBA) Derivatives as HBV Capsid Assembly Modulators” (J Med Chem, 2023).
# Activity calls are given as the source filed them. The calls are words filed in the database; no cut-off is given here.
# What was measured:
# [1] = AUC(0 to t) in Sprague-Dawley rat at 2 mg/kg, iv by LC-MS/MS analysis; format: ADME, organism-based; design: dose 2 mg/kg, route iv; conditions: in vivo
# [2] = Metabolic stability of the compound in human liver microsomes assessed as parent compound remaining at 100 uM incubated for 60 mins in presence of NADPH by LC-MS/MS analysis; format: ADME, Microsome; conditions: read-out: Stability
# Hepatitis B virus [3] = assay: Antiviral activity against Hepatitis B virus infected in human HePAD38 cells assessed as inhibition of viral DNA replication by qPCR analysis; format: functional, organism-based
# [4] = Tmax in Sprague-Dawley rat at 20 mg/kg, po by LC-MS/MS analysis; format: ADME, organism-based; conditions: in vivo
# Hepatitis B virus [5] = assay: Antiviral activity against Hepatitis B virus infected in C57BL/6J mouse assessed as reduction in HBcAg expression […] at 25 mg/kg/day, po for 18 days by immunohistochemistry; format: functional, organism-based; conditions: time 18.0 day
# [6] = Hepatotoxicity in C57BL/6J mouse infected with Hepatitis B virus assessed as serum AST level at 25 mg/kg/day, po for 18 days by colorimetry; format: toxicity, organism-based; conditions: in vivo, 432 h, time 18 day
# [7] = Cmax in Sprague-Dawley rat at 2 mg/kg, iv by LC-MS/MS analysis; format: ADME, organism-based; design: dose 2 mg/kg, route iv; conditions: in vivo
# [8] = AUC(0 to infinity) in Sprague-Dawley rat at 20 mg/kg, po by LC-MS/MS analysis; format: ADME, organism-based; design: dose 20 mg/kg, route po; conditions: in vivo
# [9] = AUC(0 to infinity) in Sprague-Dawley rat at 2 mg/kg, iv by LC-MS/MS analysis; format: ADME, organism-based; design: dose 2 mg/kg, route iv; conditions: in vivo
# [10] = Half life in human plasma at 100 uM by LC-MS/MS analysis; format: ADME, cell-free
# [11] = Hepatotoxicity in C57BL/6J mouse infected with Hepatitis B virus assessed as serum ALT level at 25 mg/kg/day, po for 18 days by colorimetry; format: toxicity, organism-based; conditions: in vivo, 432 h, time 18 day
# [12] = MRT(0 to infinity) in Sprague-Dawley rat at 20 mg/kg, po by LC-MS/MS analysis; format: ADME, organism-based; conditions: in vivo
# [13] = Half life in Sprague-Dawley rat at 2 mg/kg, iv by LC-MS/MS analysis; format: ADME, organism-based; conditions: in vivo
# [14] = Half life in human liver microsomes at 100 uM preincubated for 10 mins followed by incubation with NADPH regenerating system for 30 mins by LC-MS/MS analysis; format: ADME, Microsome; conditions: time 40 min
# [15] = Cmax in Sprague-Dawley rat at 20 mg/kg, po by LC-MS/MS analysis; format: ADME, organism-based; design: dose 20 mg/kg, route po; conditions: in vivo
# Core antigen = Core antigen (Hepatitis B virus, UniProt Q03732); assay: Inhibition of fluorescent-labeled capsid assembly in Hepatitis B virus incubated for 1 hr by fluorescence based analysis
# Core antigen, sequence (Q03732 whole entry): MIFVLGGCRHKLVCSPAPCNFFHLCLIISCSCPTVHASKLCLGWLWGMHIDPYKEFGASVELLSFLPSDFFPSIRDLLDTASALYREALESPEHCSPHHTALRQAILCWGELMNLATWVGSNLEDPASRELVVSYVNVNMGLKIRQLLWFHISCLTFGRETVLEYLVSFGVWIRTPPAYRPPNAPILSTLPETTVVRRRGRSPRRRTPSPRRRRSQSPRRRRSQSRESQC
# [16] = Volume of distribution at steady state in Sprague-Dawley rat at 2 mg/kg, iv by LC-MS/MS analysis; format: ADME, organism-based; conditions: in vivo
# [17] = MRT(0 to t) in Sprague-Dawley rat at 20 mg/kg, po by LC-MS/MS analysis; format: ADME, organism-based; conditions: in vivo
# [18] = AUC(0 to t) in Sprague-Dawley rat at 20 mg/kg, po by LC-MS/MS analysis; format: ADME, organism-based; design: dose 20 mg/kg, route po; conditions: in vivo
# [19] = Cytotoxicity against human HePAD38 cells assessed as reduction in cell viability incubated for 72 hrs by CCK8 assay; format: toxicity, cell-based
# [20] = Metabolic stability of the compound in human liver microsomes assessed as parent compound remaining at 100 uM incubated for 60 mins in absence of NADPH by LC-MS/MS analysis; format: ADME, Microsome; conditions: read-out: Stability
# [21] = Selectivity index, ratio of CC50 for cytotoxicity against human HePAD38 cells to EC50 for antiviral activity against Hepatitis B virus infected in human HePAD38 cells; format: toxicity, cell-based; conditions: read-out: Ratio CC50/EC50
# Hepatitis B virus [22] = assay: Antiviral activity against Hepatitis B virus infected in human HLCZ01 cells assessed as inhibition of HBV virion production by measuring inhibition of viral DNA replication incubated for 6 days by qPCR analysis; format: functional, organism-based
# [23] = Oral bioavailability in Sprague-Dawley rat at 20 mg/kg by LC-MS/MS analysis; format: ADME, organism-based; conditions: in vivo
# [24] = Cytotoxicity against human HLCZ01 cells assessed as reduction in cell viability upto 30 uM incubated for 72 hrs by CCK8 assay; format: toxicity, cell-based; conditions: hlcz01, 72 h
# Hepatitis B virus [25] = assay: Antiviral activity against Hepatitis B virus infected in C57BL/6J mouse assessed as inhibition of viral DNA level in serum at 25 mg/kg/day, po for 18 days by qPCR analysis; format: functional, organism-based; conditions: time 18.0 day
# [26] = Intrinsic clearance in human liver microsomes at 100 uM preincubated for 10 mins followed by incubation with NADPH regenerating system for 30 mins and measured per mg protein by LC-MS/MS analysis; format: ADME, Microsome; conditions: time 40 min, read-out: CLH
# Hepatitis B virus [27] = assay: Antiviral activity against Hepatitis B virus infected in C57BL/6J mouse assessed as reduction in HBsAg level in serum at 25 mg/kg/day, po for 18 days by ELISA; format: functional, organism-based; conditions: time 18.0 day
# [28] = Half life in Sprague-Dawley rat at 20 mg/kg, po by LC-MS/MS analysis; format: ADME, organism-based; conditions: in vivo
# [29] = MRT(0 to t) in Sprague-Dawley rat at 2 mg/kg, iv by LC-MS/MS analysis; format: ADME, organism-based; conditions: in vivo
# Hepatitis B virus [30] = assay: Antiviral activity against Hepatitis B virus infected in human HLCZ01 cells assessed as reduction in HBsAg level at 0.03 to 3 uM incubated for 6 days by ELISA; format: functional, organism-based; conditions: dose 0.03-3 µM, time 6.0 day
smiles,measurement,setting,value
C=CCNC(=S)Nc1cc(C(=O)Nc2ccc(F)c(C)c2)c(C)cc1F,AUC(0-t),[1],3260 ng·h/mL
same,"remaining at 1 h, 100 µM",[2],31.2%
same,EC50,Hepatitis B virus [3],12 nM
same,Tmax,[4],1.83 h
same,Activity,Hepatitis B virus [5],Active
same,Activity,[6],Non-Toxic
same,Cmax,[7],5390 ng/mL
same,AUC(0-inf),[8],22000 ng·h/mL
same,AUC(0-inf),[9],3260 ng·h/mL
same,half-life at 100 µM,[10],0.9 h
same,Activity,[11],Non-Toxic
same,MRT inf,[12],3.26 h
same,half-life,[13],0.98 h
same,half-life at 100 µM,[14],0.635 h
same,Cmax,[15],4770 ng/mL
same,IC50,Core antigen,880 nM
same,Vdss,[16],0.51 L/kg
same,MRT last,[17],3.16 h
same,AUC(0-t),[18],22000 ng·h/mL
same,CC50 at 72 h,[19],26600 nM
same,"remaining at 1 h, 100 µM",[20],72.6%
same,selectivity ratio,[21],2210
same,EC50,"Hepatitis B virus [22]; HLCZ01, 144 h",33 nM
same,Activity,Hepatitis B virus [22]; time 6.0 day,Dose-Dependent Effect
same,bioavailability,[23],67.7%
same,Activity,[24],Non-Toxic
same,Activity,Hepatitis B virus [25],Active
same,microsomal CLint at 100 µM,[26],36.4 µL/min/mg
same,Activity,Hepatitis B virus [27],inactive
same,half-life,[28],1.67 h
same,MRT last,[29],0.82 h
same,Activity,Hepatitis B virus [30],inactive
Cc1cc(NC(=O)c2cc(NC(=S)NC(C)C)c(F)cc2Br)ccc1F,EC50,Hepatitis B virus [3],140 nM
same,IC50,Core antigen,940 nM
same,CC50 at 72 h,[19],> 100000 nM
same,selectivity ratio,[21],> 714
O=C(Nc1cc(F)c(F)c(F)c1)c1ccc(F)c(S(=O)(=O)N2CCC(O)CC2)c1,EC50,Hepatitis B virus [3],350 nM
same,IC50,Core antigen,1530 nM
same,CC50 at 72 h,[19],16700 nM
same,selectivity ratio,[21],47.6
O=C(O)Cc1ccccc1Nc1c(Cl)cccc1Cl [DICLOFENAC],microsomal CLint at 100 µM,[26],257 µL/min/mg
Cc1cc(NC(=O)c2cc(NC(=O)c3ccc(C#N)cc3)c(F)cc2Br)ccc1F,EC50,Hepatitis B virus [3],150 nM
same,CC50 at 72 h,[19],85700 nM
same,selectivity ratio,[21],572
Cc1cc(NC(=O)c2cc(NC(=O)NCc3ccc(C(F)(F)F)cc3)c(F)cc2Br)ccc1F,EC50,Hepatitis B virus [3],330 nM
same,CC50 at 72 h,[19],11800 nM
same,selectivity ratio,[21],35.6
C=CCNC(=S)Nc1cc(C(=O)Nc2ccc(F)c(C)c2)c(Br)cc1F,EC50,Hepatitis B virus [3],140 nM
same,CC50 at 72 h,[19],50100 nM
same,selectivity ratio,[21],358
O=C(Nc1ccc(F)c(C(F)(F)F)c1)c1cc(S(=O)(=O)N[C@H]2CCOC2)c(F)cc1Br,EC50,Hepatitis B virus [3],5060 nM
same,CC50 at 72 h,[19],> 100000 nM
same,selectivity ratio,[21],> 19.8
Cc1cc(NC(=O)c2cc(NC(=O)c3ccc(Br)cc3)c(F)cc2Br)ccc1F,EC50,Hepatitis B virus [3],190 nM
same,CC50 at 72 h,[19],2400 nM
same,selectivity ratio,[21],12.6
CCOC(=O)C1=C(CN2CCOCC2)NC(c2nccs2)=N[C@H]1c1ccc(C)cc1Br,EC50,Hepatitis B virus [3],17 nM
same,IC50,Core antigen,860 nM
same,CC50 at 72 h,[19],> 100000 nM
same,selectivity ratio,[21],> 5920
Cc1cc(CNC(=S)Nc2cc(C(=O)Nc3ccc(F)c(C)c3)c(Br)cc2F)ccc1F,EC50,Hepatitis B virus [3],100 nM
same,CC50 at 72 h,[19],3710 nM
same,selectivity ratio,[21],37.1
COc1ccc(CNC(=O)Nc2cc(C(=O)Nc3ccc(F)c(C)c3)c(Br)cc2F)cc1,EC50,Hepatitis B virus [3],87 nM
same,CC50 at 72 h,[19],4880 nM
same,selectivity ratio,[21],56.1
Cc1cc(NC(=O)c2cc(NC(=O)Nc3cc(F)c(F)c(F)c3)c(F)cc2Br)ccc1F,EC50,Hepatitis B virus [3],1180 nM
same,CC50 at 72 h,[19],2590 nM
same,selectivity ratio,[21],2.19
Cc1cc(NC(=O)c2cc(NC(=O)c3ccc(F)cc3)c(F)cc2Br)ccc1F,EC50,Hepatitis B virus [3],460 nM
same,CC50 at 72 h,[19],1190 nM
same,selectivity ratio,[21],2.59
CCC(CC)NC(=O)Nc1cc(C(=O)Nc2ccc(F)c(C)c2)c(Br)cc1F,EC50,Hepatitis B virus [3],990 nM
same,CC50 at 72 h,[19],18000 nM
same,selectivity ratio,[21],18.2
O=C(Nc1ccc(F)cc1)c1cc(S(=O)(=O)N[C@H]2CCOC2)c(F)cc1Br,EC50,Hepatitis B virus [3],2390 nM
same,CC50 at 72 h,[19],> 100000 nM
same,selectivity ratio,[21],> 41.8
Cc1cc(NC(=O)c2cc(NC(=O)c3cc(F)c(F)c(F)c3)c(F)cc2Br)ccc1F,EC50,Hepatitis B virus [3],830 nM
same,CC50 at 72 h,[19],18100 nM
same,selectivity ratio,[21],21.8
O=C(Nc1ccc(F)c(F)c1)c1cc(S(=O)(=O)N[C@H]2CCOC2)c(F)cc1Br,EC50,Hepatitis B virus [3],940 nM
same,CC50 at 72 h,[19],63700 nM
same,selectivity ratio,[21],67.8
